Assay results reported in US8802700B2 (Vertex Pharmaceuticals Incorporated, priority 2010, dated 2014).

biological target: T1, ΔF508-CFTR (Homo sapiens, UniProt P13569, DEL508-508); test: Membrane potential optical assay (FRET voltage-sensor dyes, VIPR), identification of potentiator compounds; type: cell-based; settings: Table 3; assay not given
T1 construct: expressed in transfected cells
Procedure, shortened: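 Potentiator screen measured membrane potential via FRET between CC2-DMPE donor and DiSBAC2(3), read on VIPR II. Compound went in with the first addition of chloride-free gluconate bath; cells were ΔF508-CFTR-expressing NIH3T3 mouse fibroblasts, temperature-corrected at 27 °C for 24 h.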

T1 sequence (P13569 with tags, fused parts or gaps DEL508-508): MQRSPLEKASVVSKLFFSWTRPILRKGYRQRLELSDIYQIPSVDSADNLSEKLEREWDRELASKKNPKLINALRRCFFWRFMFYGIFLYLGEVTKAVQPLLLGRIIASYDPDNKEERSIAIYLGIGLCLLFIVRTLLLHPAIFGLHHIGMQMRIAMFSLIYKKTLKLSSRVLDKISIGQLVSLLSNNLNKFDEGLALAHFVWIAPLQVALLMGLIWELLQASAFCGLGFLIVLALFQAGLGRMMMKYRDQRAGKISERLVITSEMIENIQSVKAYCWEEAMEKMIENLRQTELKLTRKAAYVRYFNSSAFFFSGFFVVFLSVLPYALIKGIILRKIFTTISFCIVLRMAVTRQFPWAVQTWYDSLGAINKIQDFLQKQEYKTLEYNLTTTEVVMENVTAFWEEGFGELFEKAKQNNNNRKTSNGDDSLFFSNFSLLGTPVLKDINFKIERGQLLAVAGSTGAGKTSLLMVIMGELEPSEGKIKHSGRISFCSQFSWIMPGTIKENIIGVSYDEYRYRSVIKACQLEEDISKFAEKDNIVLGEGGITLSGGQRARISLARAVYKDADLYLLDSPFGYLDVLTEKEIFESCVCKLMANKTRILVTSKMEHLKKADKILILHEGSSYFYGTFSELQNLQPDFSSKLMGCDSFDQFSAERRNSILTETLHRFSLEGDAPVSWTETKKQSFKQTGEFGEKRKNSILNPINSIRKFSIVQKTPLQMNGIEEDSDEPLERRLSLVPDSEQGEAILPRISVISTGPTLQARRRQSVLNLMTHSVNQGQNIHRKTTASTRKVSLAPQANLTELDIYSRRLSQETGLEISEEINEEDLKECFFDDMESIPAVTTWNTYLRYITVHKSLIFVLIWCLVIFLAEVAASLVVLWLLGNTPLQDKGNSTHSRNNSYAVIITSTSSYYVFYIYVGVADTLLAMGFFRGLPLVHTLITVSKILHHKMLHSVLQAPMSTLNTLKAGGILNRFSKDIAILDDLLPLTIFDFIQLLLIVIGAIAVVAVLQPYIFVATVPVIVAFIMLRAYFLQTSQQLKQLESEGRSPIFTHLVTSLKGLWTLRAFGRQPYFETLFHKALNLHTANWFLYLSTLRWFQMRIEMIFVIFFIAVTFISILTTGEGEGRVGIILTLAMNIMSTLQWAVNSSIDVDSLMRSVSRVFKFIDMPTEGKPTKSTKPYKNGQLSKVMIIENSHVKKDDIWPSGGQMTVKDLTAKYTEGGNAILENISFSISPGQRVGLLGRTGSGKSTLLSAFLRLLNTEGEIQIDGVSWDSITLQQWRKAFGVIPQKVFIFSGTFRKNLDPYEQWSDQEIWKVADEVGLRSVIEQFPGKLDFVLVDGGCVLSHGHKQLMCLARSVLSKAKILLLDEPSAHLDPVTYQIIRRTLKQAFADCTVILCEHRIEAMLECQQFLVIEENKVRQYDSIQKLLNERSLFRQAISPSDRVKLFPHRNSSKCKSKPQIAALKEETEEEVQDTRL

Row | EC50 | Compound
1 | 10 to 25 µM | CS(=O)(=O)Nc1cccc(NC(=O)c2c[nH]c3ccccc3c2=O)c1 [Compound 214, N-(3-methylsulfonylaminophenyl)-4-oxo-1H-quinoline-3-carboxamide]
2 | < 10 µM | CCOC(=O)c1cc(NC(=O)c2c[nH]c3ccccc3c2=O)cc2[nH]ccc12 [Compound 145, 6-[(4-oxo-1H-quinolin-3-yl)carbonylamino]-1H-indole-4-carboxylic acid ethyl ester]
3 | < 10 µM | CS(=O)(=O)Nc1cc(NC(=O)c2c[nH]c3ccccc3c2=O)cc(C(F)(F)F)c1 [Compound 441, N-[3-methylsulfonylamino-5-(trifluoromethyl)phenyl]-4-oxo-1H-quinoline-3-carboxamide]
4 | < 10 µM | O=C(Nc1ccccc1-c1cc(F)cc(F)c1)c1c[nH]c2ccccc2c1=O [Compound 138, N-[2-(3,5-difluorophenyl)phenyl]-4-oxo-1H-quinoline-3-carboxamide]

same assay, conditions: Table 3; assay not given; read-out: % Activity (% Efficacy, relative efficacy)

Row | Compound | Emax
5 | COc1ccccc1-c1ccccc1NC(=O)c1c[nH]c2ccccc2c1=O [Compound 355, N-[2-(2-methoxyphenyl)phenyl]-4-oxo-1H-quinoline-3-carboxamide] | 25 to 100%
6 | O=C(Nc1cc(NS(=O)(=O)CCN2CCCCC2)cc(C(F)(F)F)c1)c1c[nH]c2ccccc2c1=O [Compound 318, 4-Oxo-N-[3-[2-(1-piperidyl)ethylsulfonylamino]-5-(trifluoromethyl)phenyl]-1H-quinoline-3-carboxamide] | 25 to 100%
7 | CC(C)(C)c1ccc(NC(=O)c2c[nH]c3ccccc3c2=O)cc1C#N [Compound 13, N-(3-cyano-4-tert-butyl-phenyl)-4-oxo-1H-quinoline-3-carboxamide] | 25 to 100%
8 | CCc1ccc(Cl)c(CC)c1NC(=O)c1c[nH]c2ccccc2c1=O [Compound 91, N-(3-chloro-2,6-diethyl-phenyl)-4-oxo-1H-quinoline-3-carboxamide] | 25 to 100%
9 | Cc1ccc2c(c1)c(=O)c(C(=O)Nc1ccccc1-c1ccccc1)cn2C [Compound 128, 1,6-dimethyl-4-oxo-N-(2-phenylphenyl)-1H-quinoline-3-carboxamide] | < 25%
10 | CCc1ccc(NC(=O)c2c[nH]c3ccccc3c2=O)cc1N [Compound 8, N-(3-amino-4-ethyl-phenyl)-4-oxo-1H-quinoline-3-carboxamide] | 25 to 100%
11 | N#Cc1ccccc1NC(=O)c1c[nH]c2ccccc2c1=O [Compound 95, N-(2-cyanophenyl)-4-oxo-1H-quinoline-3-carboxamide] | 25 to 100%
12 | CS(=O)(=O)Nc1cccc(NC(=O)c2c[nH]c3ccccc3c2=O)c1 [Compound 214, N-(3-methylsulfonylaminophenyl)-4-oxo-1H-quinoline-3-carboxamide] | 25 to 100%
13 | CC(C)(CNC(=O)OCC1CCOC1)c1ccc(NC(=O)c2c[nH]c3ccccc3c2=O)cc1 (stereo not shown) [Compound 396, [2-methyl-2-[4-[(4-oxo-1H-quinolin-3-yl)carbonylamino]phenyl]-propyl]aminoformic acid tetrahydrofuran-3-ylmethyl ester] | 25 to 100%
14 | CCc1ccc(N(C)C)cc1NC(=O)c1c[nH]c2ccccc2c1=O [Compound 409, N-(5-dimethylamino-2-ethyl-phenyl)-4-oxo-1H-quinoline-3-carboxamide] | 25 to 100%
15 | CCc1cccc(CC)c1NC(=O)c1c[nH]c2ccccc2c1=O [Compound 325, N-(2,6-diethylphenyl)-4-oxo-1H-quinoline-3-carboxamide] | 25 to 100%
16 | COc1cccc(OC)c1-c1cc2cc[nH]c2cc1NC(=O)c1c[nH]c2ccccc2c1=O [Compound 404, N-[5-(2,6-dimethoxyphenyl)-1H-indol-6-yl]-4-oxo-1H-quinoline-3-carboxamide] | 25 to 100%
17 | CCC(CC)(CC)c1cc(F)c(NC(=O)c2cnc3ccccc3c2O)cc1O [Compound 34, N-[4-(1,1-diethylpropyl)-2-fluoro-5-hydroxy-phenyl]-4-hydroxy-quinoline-3-carboxamide] | 25 to 100%
18 | NS(=O)(=O)c1cccc(NC(=O)c2c[nH]c3ccccc3c2=O)c1 [Compound 9, 4-oxo-N-(3-sulfamoylphenyl)-1H-quinoline-3-carboxamide] | < 25%
19 | O=C(Nc1cc2[nH]ccc2cc1C(=O)N1CCCCC1)c1c[nH]c2ccccc2c1=O [Compound 148, 4-Oxo-N-[5-(1-piperidylcarbonyl)-1H-indol-6-yl]-1H-quinoline-3-carboxamide] | 25 to 100%
20 | O=C(Nc1ccc(-c2ccccc2CNC(=O)C(F)(F)F)cc1)c1c[nH]c2ccccc2c1=O [Compound 224, 4-oxo-N-[4-[2-[(2,2,2-trifluoroacetyl)aminomethyl]phenyl]phenyl]-1H-quinoline-3-carboxamide] | 25 to 100%
21 | CCOC(=O)c1cc(NC(=O)c2c[nH]c3ccccc3c2=O)cc2[nH]ccc12 [Compound 145, 6-[(4-oxo-1H-quinolin-3-yl)carbonylamino]-1H-indole-4-carboxylic acid ethyl ester] | 25 to 100%
22 | CCOc1ccccc1NC(=O)c1c[nH]c2ccccc2c1=O [Compound 380, N-(2-ethoxyphenyl)-4-oxo-1H-quinoline-3-carboxamide] | 25 to 100%
23 | Cc1cccc(NC(=O)c2c[nH]c3ccccc3c2=O)n1 [Compound 173, N-(6-methyl-2-pyridyl)-4-oxo-1H-quinoline-3-carboxamide] | < 25%
24 | O=C(Nc1cccc2ccccc12)c1c[nH]c2ccccc2c1=O [Compound 350, N-(1-naphthyl)-4-oxo-1H-quinoline-3-carboxamide] | 25 to 100%
25 | CCCOc1ccc(NC(=O)c2c[nH]c3ccccc3c2=O)cc1N [Compound 368, N-(3-amino-4-propoxy-phenyl)-4-oxo-1H-quinoline-3-carboxamide] | 25 to 100%
26 | CS(=O)(=O)Nc1cc(NC(=O)c2c[nH]c3ccccc3c2=O)cc(C(F)(F)F)c1 [Compound 441, N-[3-methylsulfonylamino-5-(trifluoromethyl)phenyl]-4-oxo-1H-quinoline-3-carboxamide] | 25 to 100%
27 | CC(C)(C)c1ccc(NC(=O)c2c[nH]c3ccccc3c2=O)cc1S(N)(=O)=O [Compound 268, 4-oxo-N-(3-sulfamoyl-4-tert-butyl-phenyl)-1H-quinoline-3-carboxamide] | 25 to 100%
28 | O=C(Nc1ccc2c(C3CCCC3)c[nH]c2c1)c1c[nH]c2ccccc2c1=O [Compound 186, N-(3-cyclopentyl-1H-indol-6-yl)-4-oxo-1H-quinoline-3-carboxamide] | 25 to 100%
29 | CCOc1ccc(NC(C)=O)cc1NC(=O)c1c[nH]c2ccccc2c1=O [Compound 132, N-(5-acetylamino-2-ethoxy-phenyl)-4-oxo-1H-quinoline-3-carboxamide] | < 25%
30 | CCCc1ccc(NC(=O)c2c[nH]c3ccccc3c2=O)cc1N [Compound 160, N-(3-amino-4-propyl-phenyl)-4-oxo-1H-quinoline-3-carboxamide] | 25 to 100%
31 | COc1ccc(NC(=O)c2c[nH]c3ccccc3c2=O)c(OC)n1 [Compound 193, N-(2,6-dimethoxy-3-pyridyl)-4-oxo-1H-quinoline-3-carboxamide] | 25 to 100%
32 | O=C(Nc1cc2ccccc2cn1)c1c[nH]c2ccccc2c1=O [Compound 309, N-(3-isoquinolyl)-4-oxo-1H-quinoline-3-carboxamide] | < 25%
33 | O=C(Nc1ccccc1-c1cc(F)cc(F)c1)c1c[nH]c2ccccc2c1=O [Compound 138, N-[2-(3,5-difluorophenyl)phenyl]-4-oxo-1H-quinoline-3-carboxamide] | 25 to 100%

Now from value to molecule:

Row | Emax | Compound
34 | 25 to 100% | Cc1cccc2[nH]cc(C(=O)Nc3ccc(N4CCCC(C)C4)cc3C(F)(F)F)c(=O)c12 (stereo not shown) [Compound 643, 5-methyl-N-[4-(3-methyl-1-piperidyl)-2-(trifluoromethyl)phenyl]-4-oxo-1H-quinoline-3-carboxamide]
35 | 25 to 100% | CC(C)(C)c1cc(F)c(NC(=O)c2c[nH]c3c(C#N)cccc3c2=O)cc1O [Compound 519, 8-cyano-N-(2-fluoro-5-hydroxy-4-tert-butyl-phenyl)-4-oxo-1H-quinoline-3-carboxamide]
36 | 25 to 100% | COc1ccc2[nH]cc(C(=O)Nc3cc(O)c(C(C)(C)C)cc3C(C)(C)C)c(=O)c2c1 [Compound 496, N-(5-hydroxy-2,4-ditert-butyl-phenyl)-6-methoxy-4-oxo-1H-quinoline-3-carboxamide]
37 | 25 to 100% | O=C(Nc1ccc(N2CCC[C@@H]2CO)cc1C(F)(F)F)c1c[nH]c2ccccc2c1=O [Compound 670, (R)-N-(4-(2-(hydroxymethyl)pyrrolidin-1-yl)-2-(trifluoromethyl)phenyl)-4-oxo-1,4-dihydroquinoline-3-carboxamide]
38 | 25 to 100% | COc1ccc2[nH]cc(C(=O)Nc3ccc(N4[C@H](C)CC[C@H]4C)cc3C(F)(F)F)c(=O)c2c1 [Compound 685, N-(4-((2R,5R)-2,5-dimethylpyrrolidin-1-yl)-2-(trifluoromethyl)phenyl)-6-methoxy-4-oxo-1,4-dihydroquinoline-3-carboxamide]
39 | 25 to 100% | CC(C)(C)c1cc2cc[nH]c2cc1NC(=O)c1c[nH]c2ccc(O)cc2c1=O [Compound 679, 6-hydroxy-4-oxo-N-(5-tert-butyl-1H-indol-6-yl)-1H-quinoline-3-carboxamide]
40 | 25 to 100% | CC(CO)(CO)c1ccc(NC(=O)c2c[nH]c3cccc(O)c3c2=O)cc1 [Compound 493, 5-hydroxy-N-[4-[2-hydroxy-1-(hydroxymethyl)-1-methyl-ethyl]phenyl]-4-oxo-1H-quinoline-3-carboxamide]
41 | < 25% | O=C(Nc1ccc2c(c1)CCO2)c1c[nH]c2ccccc2c1=O [Compound 467, N-(2,3-dihydrobenzofuran-5-yl)-4-oxo-1H-quinoline-3-carboxamide]
42 | 25 to 100% | CCc1cc2cc[nH]c2cc1NC(=O)c1c[nH]c2cccc(O)c2c1=O [Compound 591, N-(5-ethyl-1H-indol-6-yl)-5-hydroxy-4-oxo-1H-quinoline-3-carboxamide]
43 | 25 to 100% | CCOc1ccc2[nH]cc(C(=O)Nc3cc(O)c(C(C)(C)C)cc3C(C)(C)C)c(=O)c2c1 [Compound 524, 6-ethoxy-N-(5-hydroxy-2,4-ditert-butyl-phenyl)-4-oxo-1H-quinoline-3-carboxamide]
44 | 25 to 100% | O=C(Nc1cc(O)cc(C(F)(F)F)c1)c1c[nH]c2cccc(O)c2c1=O [Compound 599, 5-hydroxy-N-[3-hydroxy-5-(trifluoromethyl)phenyl]-4-oxo-1H-quinoline-3-carboxamide]
45 | 25 to 100% | CCOc1ccc2[nH]cc(C(=O)Nc3cc4[nH]ccc4cc3C(C)(C)C)c(=O)c2c1 [Compound 681, 6-ethoxy-4-oxo-N-(5-tert-butyl-1H-indol-6-yl)-1H-quinoline-3-carboxamide]
46 | 25 to 100% | CC(C)(C)c1cc(C(C)(C)C)c(NC(=O)c2c[nH]c3cc(F)c(F)cc3c2=O)cc1O [Compound 672, 6,7-difluoro-N-(5-hydroxy-2,4-ditert-butyl-phenyl)-4-oxo-1H-quinoline-3-carboxamide]
